Experimental data from patent US20180072997A1, “INHIBITORS OF HUMAN IMMUNODEFICIENCY VIRUS REPLICATION” (ViiV HEATHCARE UK (NO.5) LIMITED, priority 2015, published 2018).

How the values were obtained:
[1] = system: recombinant NL4-3 virus (Renilla luciferase in nef) in MT-2 cells; assay: whole plant or invertebrate; format: cell-based, HIV; settings: luciferase activity
Method in brief: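 MT-2 cells infected for 4-5 days with NL4-3 reporter virus (Renilla luciferase replacing part of nef, produced by transfection of 293T cells) in the presence of serial compound dilutions. Antiviral activity quantified by luciferase activity read with a live-cell substrate.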

uninfected MT2 cells = assay: Compound cytotoxicity, XTT-based colorimetric assay; format: cell-based; settings: day 4, XTT
Method in brief: (§1)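 Run under the antiviral-assay protocol but without virus. Viability was read on day 4 and CC50 values were derived from the readout.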

[2] = as above; format: cell-based; settings: human, uninfected MT2 cells, day 4, XTT
Method in brief: as §1

[3] = MT-2 cells infected for 4-5 days with recombinant NL4-3 Renilla luciferase virus
[4] = Renilla, NL43, MT-2 cells infected for 4-5 days with recombinant NL4-3 Renilla luciferase virus

For `COc1ccc(N(C)C(=O)[C@H](Cc2ccccc2)NC(=O)C=C(C)CC(=O)N[C@@H](Cc2ccccc2)C(=O)N(C)c2ccc(OC)cc2)cc1` (single isomer, unassigned) [Example 114], the EC50 [1, 3] was 1.78 µM and the CC50 (uninfected MT2 cells) was 27.1 µM.
`COc1ccc(N(C)C(=O)[C@H](Cc2cc(F)cc(F)c2)NC(=O)C(C)n2c(=O)n(C(C)C(=O)N[C@@H](Cc3cc(F)cc(F)c3)C(=O)N(C)c3ccc(OC)cc3)c3ccccc32)cc1` (single isomer, unassigned) [Example 133] gave an EC50 [1, 3] of 0.41 µM and a CC50 (uninfected MT2 cells) of 13.9 µM.
`COc1ccc(N(C)C(=O)[C@H](Cc2ccccc2)NC(=O)C(C)n2c(=O)n(C(C)C(=O)N[C@@H](Cc3ccccc3)C(=O)N(C)c3ccc(OC)cc3)c3ccccc32)cc1` (single isomer, unassigned) [Example 134] showed an EC50 [1, 3] of 0.82 µM and a CC50 (uninfected MT2 cells) of 10.8 µM.
Compound `C=CCCN(C(=O)[C@H](Cc1cc(F)cc(F)c1)NC(=O)NS(=O)(=O)N[C@@H](Cc1cc(F)cc(F)c1)C(=O)N(CCC=C)c1ccc2scnc2c1)c1ccc2scnc2c1` (single isomer, unassigned) [Example 142] has an EC50 [1, 3] of 0.82 µM and a CC50 (uninfected MT2 cells) of 17.4 µM.
With `CCc1ncc(N(C)C(=O)[C@H](Cc2cc(F)cc(F)c2)NC(=O)NS(=O)(=O)N[C@@H](Cc2cc(F)cc(F)c2)C(=O)N(C)c2cnc(CC)nc2)cn1` [Example 208] the EC50 [1, 4] was 16 µM and the CC50 at 4 days [2] was 37.7 µM.
With `CN(C(=O)[C@H](Cc1cc(F)cc(F)c1)NC(=O)CN1c2ccccc2N(CC(=O)N[C@@H](Cc2cc(F)cc(F)c2)C(=O)N(C)c2ccc3c(c2)ncn3C)S1(=O)=O)c1ccc2c(c1)ncn2C` [Example 209] the EC50 [1, 4] was 0.42 µM and the CC50 at 4 days [2] was ≥ 100 µM.
For `C=CCN(C(=O)[C@H](Cc1cc(F)cc(F)c1)NC(=O)c1ccccc1S(=O)(=O)N[C@@H](Cc1cc(F)cc(F)c1)C(=O)N(CC=C)c1ccc(OC)cc1)c1ccc(OC)cc1` [Example 210], the EC50 [1, 4] was 10.1 µM and the CC50 at 4 days [2] was ≥ 100 µM.
`C=CCN(C(=O)[C@H](Cc1cc(F)cc(F)c1)NC(=O)c1ccncc1C(=O)N[C@@H](Cc1cc(F)cc(F)c1)C(=O)N(CC=C)c1ccc(OC)cc1)c1ccc(OC)cc1` [Example 211] gave an EC50 [1, 4] of 3.92 µM and a CC50 at 4 days [2] of 14 µM.
With `C=CCN(C(=O)[C@H](Cc1cc(F)cc(F)c1)NC(=O)c1nccnc1C(=O)N[C@@H](Cc1cc(F)cc(F)c1)C(=O)N(CC=C)c1ccc(OC)cc1)c1ccc(OC)cc1` [Example 212] the EC50 [1, 4] was 3.73 µM and the CC50 at 4 days [2] was ≥ 100 µM.
In the case of `C=CCN(C(=O)[C@H](Cc1cc(F)cc(F)c1)NC(=O)NS(=O)(=O)N[C@@H](Cc1cc(F)cc(F)c1)C(=O)N(CC=C)c1ccc2nccnc2c1)c1ccc2nccnc2c1` [Example 213], the EC50 [1, 4] is reported as 8.21 µM and the CC50 at 4 days [2] is reported as ≥ 100 µM.
For `CN(C(=O)[C@H](Cc1cc(F)cc(F)c1)NC(=O)NS(=O)(=O)N[C@@H](Cc1cc(F)cc(F)c1)C(=O)N(C)c1ccc(OC(F)F)nc1)c1ccc(OC(F)F)nc1` [Example 214], the EC50 [1, 4] was 0.01 µM and the CC50 at 4 days [2] was 43.8 µM.
`CN(C(=O)[C@H](Cc1cc(F)cc(F)c1)NC(=O)NS(=O)(=O)N[C@@H](Cc1cc(F)cc(F)c1)C(=O)N(C)c1ccc(F)c(F)c1)c1ccc(F)c(F)c1` [Example 215] gave an EC50 [1, 4] of 0.31 µM and a CC50 at 4 days [2] of 34.5 µM.
For `Cc1ccc(N(C)C(=O)[C@H](Cc2ccccc2)NC(=O)NS(=O)(=O)N[C@@H](Cc2ccccc2)C(=O)N(C)c2ccc(C)c(Cl)c2)cc1Cl` [Example 220], the EC50 [1, 4] was 3.8 µM and the CC50 at 4 days [2] was 16.7 µM.
With `CN(C(=O)[C@H](Cc1cc(F)cc(F)c1)NC(=O)N[C@@H](Cc1cc(F)cc(F)c1)C(=O)N(C)c1ccc2scnc2c1)c1ccc2scnc2c1` [Example 221] the EC50 [1, 4] was 0.52 µM and the CC50 at 4 days [2] was ≥ 100 µM.
With `C=CCCN(C(=O)[C@H](Cc1ccccc1)NC(=O)NS(=O)(=O)N[C@@H](Cc1ccccc1)C(=O)N(CC=C)c1ccc(OC)nc1)c1ccc(OC)nc1` [Example 223] the EC50 [1, 4] was 1.5 µM and the CC50 at 4 days [2] was ≥ 25 µM.
`Cc1cc(F)cc(N(C)C(=O)[C@H](Cc2ccccc2)NC(=O)NS(=O)(=O)N[C@@H](Cc2ccccc2)C(=O)N(C)c2cc(C)cc(F)c2)c1` [Example 224] showed an EC50 [1, 4] of 3.91 µM and a CC50 at 4 days [2] of 46 µM.
Compound `Cc1ncc(N(C)C(=O)[C@H](Cc2cc(F)cc(F)c2)NC(=O)NS(=O)(=O)N[C@@H](Cc2cc(F)cc(F)c2)C(=O)N(C)c2cnc(C)c(Cl)c2)cc1Cl` [Example 225] has an EC50 [1, 4] of 0.87 µM and a CC50 at 4 days [2] of 2.3 µM.
In the case of `CN(C(=O)[C@H](Cc1cc(F)cc(F)c1)NC(=O)NS(=O)(=O)N[C@@H](Cc1cc(F)cc(F)c1)C(=O)N(C)c1cnc2scnc2c1)c1cnc2scnc2c1` [Example 226], the EC50 [1, 4] is reported as 8.92 µM and the CC50 at 4 days [2] is reported as ≥ 100 µM.
With `Cc1cc(N(C)C(=O)[C@H](Cc2ccccc2)NC(=O)NS(=O)(=O)N[C@@H](Cc2ccccc2)C(=O)N(C)c2ccc(C#N)c(C)c2)ccc1C#N` [Example 228] the EC50 [1, 4] was 2.74 µM and the CC50 at 4 days [2] was 93.5 µM.
`Cc1cc(N(C)C(=O)[C@H](Cc2ccccc2)NC(=O)NS(=O)(=O)N[C@@H](Cc2ccccc2)C(=O)N(C)c2ccc(F)c(C)c2)ccc1F` [Example 229] gave an EC50 [1, 4] of 2.64 µM and a CC50 at 4 days [2] of 64.7 µM.
For `CN(C(=O)[C@H](Cc1cc(F)cc(F)c1)NC(=O)c1ccc(F)c(C(=O)N[C@@H](Cc2cc(F)cc(F)c2)C(=O)N(C)c2ccc(C3CC3)cc2)c1)c1ccc(C2CC2)cc1` [Example 230], the EC50 [1, 4] was 0.02 µM and the CC50 at 4 days [2] was ≥ 100 µM.
With `COc1ccc(N(C)C(=O)[C@H](Cc2cc(F)cc(F)c2)NC(=O)CN2c3ccccc3N(CC(=O)N[C@@H](Cc3cc(F)cc(F)c3)C(=O)N(C)c3ccc(OC)c(F)c3)S2(=O)=O)cc1F` [Example 231] the EC50 [1, 4] was 0.04 µM and the CC50 at 4 days [2] was ≥ 100 µM.
With `COc1ccc(N(C)C(=O)[C@H](Cc2cc(F)cc(F)c2)NC(=O)c2ccc(F)c(C(=O)N[C@@H](Cc3cc(F)cc(F)c3)C(=O)N(C)c3ccc(OC)c(F)c3)c2)cc1F` [Example 232] the EC50 [1, 4] was 0.18 µM and the CC50 at 4 days [2] was ≥ 33.3 µM.
For `COc1ccc(N(C)C(=O)[C@H](Cc2cc(F)cc(F)c2)NC(=O)NS(=O)(=O)N[C@@H](Cc2cc(F)cc(F)c2)C(=O)N(C)c2ccc(OC)c(F)c2)cc1F` [Example 233], the EC50 [1, 4] was 0.03 µM and the CC50 at 4 days [2] was 35.8 µM.
`CC#CCN(C(=O)[C@H](Cc1cc(F)cc(F)c1)NC(=O)c1cc(F)c(F)cc1C(=O)N[C@@H](Cc1cc(F)cc(F)c1)C(=O)N(CC#CC)c1ccc(OC)cc1)c1ccc(OC)cc1` [Example 234] gave an EC50 [1, 4] of 6.83 µM and a CC50 at 4 days [2] of 95.3 µM.
With `Cc1cc(N(C)C(=O)[C@H](Cc2cc(F)cc(F)c2)NC(=O)NS(=O)(=O)N[C@@H](Cc2cc(F)cc(F)c2)C(=O)N(C)c2cnc(C)c(C)c2)cnc1C` [Example 235] the EC50 [1, 4] was 7 µM and the CC50 at 4 days [2] was ≥ 100 µM.
With `CN(C(=O)[C@H](Cc1cc(F)cc(F)c1)NC(=O)NS(=O)(=O)N[C@@H](Cc1cc(F)cc(F)c1)C(=O)N(C)c1cccnc1)c1cccnc1` [Example 236] the EC50 [1, 4] was 4.14 µM and the CC50 at 4 days [2] was ≥ 100 µM.
`CN(C(=O)[C@H](Cc1cc(F)cc(F)c1)NC(=O)NS(=O)(=O)N[C@@H](Cc1cc(F)cc(F)c1)C(=O)N(C)c1ccc2sc(=O)n(C)c2c1)c1ccc2sc(=O)n(C)c2c1` [Example 237] gave an EC50 [1, 4] of 0.27 µM and a CC50 at 4 days [2] of 71.9 µM.
In the case of `Cc1nc2c(F)c(N(C)C(=O)[C@H](Cc3cc(F)cc(F)c3)NC(=O)NS(=O)(=O)N[C@@H](Cc3cc(F)cc(F)c3)C(=O)N(C)c3ccc4sc(C)nc4c3F)ccc2s1` [Example 239], the EC50 [1, 4] is reported as 0.86 µM and the CC50 at 4 days [2] is reported as ≥ 100 µM.
Work on `COc1ccc(N(C)C(=O)[C@H](Cc2cc(F)cc(F)c2)NC(=O)c2cc(F)c(F)cc2C(=O)N[C@@H](Cc2cc(F)cc(F)c2)C(=O)N(C)c2ccc(OC)cc2)cc1` [Example 254] yielded an EC50 [1, 4] of 0.09 µM and a CC50 at 4 days [2] of 10 µM.
`COc1ccc(N(C)C(=O)[C@H](Cc2cc(F)cc(F)c2)NC(=O)c2cc(Cl)c(Cl)cc2C(=O)N[C@@H](Cc2cc(F)cc(F)c2)C(=O)N(C)c2ccc(OC)cc2)cc1` [Example 255] showed an EC50 [1, 4] of 0.08 µM and a CC50 at 4 days [2] of 10 µM.
